Holding throughout (format): biochemical
In one assay the target is human thrombin (Homo sapiens, UniProt P00734). Kind of assay: Inhibition of thrombin hydrolysis of chromogenic substrate S2238 (Ki). More on the design: 0.2-0.5 nM human thrombin or human factor Xa; purchased Enzyme Research Laboratories, South Bend, Ind. The settings on record: purified human thrombin, 0.10 M sodium phosphate buffer, pH 7.5, read-out: Ki values for inhibition of Serine Proteases: Trombin. Here is the method:
(§1) The effectiveness of compounds of the present invention as inhibitors of blood coagulation proteases was determined using purified human proteases and synthetic substrates following procedures similar to those described in Kettner et al. (1990).
(§2) For these assays, the rate of enzymatic (thrombin, Factor Xa, and Factor VIIa) hydrolysis of chromogenic substrates (S2238 (H-D-Phe-Pip-Arg-pNA), S2222, and S2288, respectively; Kabi Pharmacia, Franklin, Ohio) was measured both in the absence and presence of compounds of the present invention. […] A decrease in the rate of absorbance change at 405 nm in the presence of inhibitor is indicative of enzyme inhibition. The results of this assay are expressed as inhibitory constant, Ki.
(§3) Thrombin and Xa determinations were made in 0.10 M sodium phosphate buffer, pH 7.5, containing 0.20 M NaCl, and 0.5% PEG 8000. VIIa determinations were made in 0.05 M tris buffer, pH 7.6, containing 0.10 M NaCl, 4 mM CaCl2, and 0.1% bovine serum albumin.
(§4) Reactions were allowed to go for 30 minutes and the velocities (rate of absorbance change vs time) were measured in the time frame of 25-30 minutes. The following relationship was used to calculate Ki values. [formula] where: vo is the velocity of the control in the absence of inhibitor;
(§5) vs is the velocity in the presence of inhibitor;
(§6) I is the concentration of inhibitor;
(§7) Ki is the dissociation constant of the enzyme: inhibitor complex;
(§8) S is the concentration of substrate;
(§9) Km is the Michaelis constant.

Another assay deals with T1, human factor Xa (Homo sapiens, UniProt P00742).
T1 construct: 0.2-0.5 nM human thrombin or human factor Xa; purchased Enzyme Research Laboratories, South Bend, Ind
Kind of assay: Inhibition of Factor Xa hydrolysis of chromogenic substrate S2222 (Ki). The settings on record: purified human factor Xa, 0.10 M sodium phosphate buffer; for Ki: pH 7.5, read-out: Ki values for inhibition of Serine Proteases: Factor Xa. Here is the method:
as §1, §2, §3, §4, §5, §6, §7, §8, §9

For a further assay, the target named is T2, human factor VIIa (Homo sapiens, UniProt P08709).
T2 construct: 50 nM human factor VIIa (BiosPacific, Emeryville, Calif.); purchased BiosPacific, Emeryville, Calif
T2 sequence (P08709 213-466 limits assumed): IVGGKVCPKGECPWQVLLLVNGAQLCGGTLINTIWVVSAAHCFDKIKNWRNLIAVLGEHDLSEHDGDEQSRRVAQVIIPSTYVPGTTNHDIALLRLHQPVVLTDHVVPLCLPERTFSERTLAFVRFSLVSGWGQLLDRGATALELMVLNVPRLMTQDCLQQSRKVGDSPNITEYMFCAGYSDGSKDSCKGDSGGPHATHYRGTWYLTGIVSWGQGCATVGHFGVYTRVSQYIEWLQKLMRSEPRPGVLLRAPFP
T2 sequence (P08709 61-212 partner limits assumed): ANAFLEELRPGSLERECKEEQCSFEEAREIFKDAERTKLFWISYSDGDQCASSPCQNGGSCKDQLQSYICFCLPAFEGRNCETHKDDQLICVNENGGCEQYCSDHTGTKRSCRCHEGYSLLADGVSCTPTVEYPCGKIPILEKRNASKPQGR
Description: Inhibition of Factor VIIa hydrolysis of chromogenic substrate S2288 (Ki). The settings on record: purified human factor VIIa, 0.05 M tris buffer; for Ki values for inhibition of Serine Proteases: Factor VIIa: pH 7.6; for Ki: pH 7.6, read-out: Ki values for inhibition of Serine Proteases: Factor VIIa. How it is done: as §1, §2, §3, §4, §5, §6, §7, §8, §9

Structures can show the parent of a compound that is named as a salt.

T1 sequence (P00742 235-488 limits assumed): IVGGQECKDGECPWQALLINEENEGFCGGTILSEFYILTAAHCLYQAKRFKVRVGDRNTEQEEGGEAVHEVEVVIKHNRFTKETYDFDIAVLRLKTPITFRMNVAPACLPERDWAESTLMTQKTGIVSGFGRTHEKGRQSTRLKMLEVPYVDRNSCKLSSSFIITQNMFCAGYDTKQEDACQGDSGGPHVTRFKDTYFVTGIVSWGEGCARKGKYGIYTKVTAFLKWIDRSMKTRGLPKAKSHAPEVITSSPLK
T1 sequence (P00742 41-179 partner limits assumed): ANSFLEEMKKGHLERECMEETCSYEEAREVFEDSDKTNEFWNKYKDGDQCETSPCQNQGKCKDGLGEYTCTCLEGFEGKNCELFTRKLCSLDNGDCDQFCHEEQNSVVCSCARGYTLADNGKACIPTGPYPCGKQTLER

As usually defined, the Ki is a measure of affinity in units of concentration, obtained from inhibition or displacement. For the compound “2-(2-(Trifluoromethyl)-Benzyl)-Benzoyl-Sar-Lys--C(=O)--NHNH2 2 HCl [Example 71.4.2]”, the Ki on human thrombin is under 50000 nM.

Regarding “2-(Benzyl)-Benzoyl-Sar-Lys--C(=O)--NHNH2 2 HCl [Example 70.4.2]”, the inhibition constant (Ki) on human factor Xa and at human thrombin was under 50000 nM each time. Besides, the “Ki values for inhibition of Serine Proteases: Factor VIIa” value (shortened to “Ki values for inhibition … Factor VIIa”) on human factor VIIa was “inactive”.

For the compound `CC1(C)C2CC3OB(C(CCCN)NC(=O)CN(CCc4ccccc4)C(=O)CCc4ccccc4)OC3(C)C1C2.Cl` (stereo not drawn) [Example 49.1.1, Hydrocinnamoyl-[N-(Phenethyl)-Gly]-boroOrn-C10H16HCl], the Ki was under 50000 nM on human factor Xa and under 500 nM at human thrombin. For the same compound, the “Ki values for inhibition … Factor VIIa” value at human factor VIIa is “inactive”.

On to `CC1(C)C2CC3OB(C(CCCCN)NC(=O)CN(CCc4cccc(C(F)(F)F)c4)C(=O)CCc4ccccc4)OC3(C)C1C2` (stereo not drawn) [Example 51.1.1, Hydrocinnamoyl-[N-(3-(Trifluoromethyl)-Phenethyl)-Gly]-boroLys--C10H16 HCl], for which the Ki on human factor Xa is under 500 nM; on human factor VIIa, under 50000 nM; at human thrombin it was under 500 nM.

As to `Cc1cccc(CCN(CC(=O)NC(CCCCN)B2OC3CC4CC(C4(C)C)C3(C)O2)C(=O)CCc2ccccc2)c1` (stereo not drawn) [Example 51.1.2, Hydrocinnamoyl-[N-(3-(Methyl)-Phenethyl)-Gly]-boroLys-C10H16 HCl], the Ki on human thrombin was under 500 nM.

For `NCCCCC(NC(=O)CN(CCc1cccc(C(F)(F)F)c1)C(=O)CCc1ccccc1)B(O)O` (stereo not drawn) [Example 52.1.1, Hydrocinnamoyl-[N-(3-(Trifluoromethyl)-Phenethyl)-Gly]-boroLys--OH HCl], the Ki at human factor Xa was under 500 nM; at human factor VIIa it was under 50000 nM; at human thrombin, under 500 nM.

Turning to `NCCCCC(NC(=O)CN(C(=O)CCc1ccccc1)C1CCCCC1)B(O)O` (stereo not drawn) [Example 53.4.3, Hydrocinnamoyl-[N-(Cyclohexyl)-Gly]-boroLys--OH HCl], the results for the Ki on human factor Xa, on human factor VIIa and at human thrombin were under 50000 nM, under 500 nM and under 500 nM, respectively.

Regarding `CC(C)(CN(CC(=O)NC(CCCCN)B1OC2CC3CC(C3(C)C)C2(C)O1)C(=O)CCc1ccccc1)c1ccccc1` (stereo not drawn) [Example 54.1.1, Hydrocinnamoyl-[N-(2,2-(Dimethyl)-Phenethyl)-Gly]-boroLys-C10H16 HCl], the Ki at human thrombin was under 500 nM.

In the case of `CCC(CC)(CN(CC(=O)NC(CCCCN)B1OC2CC3CC(C3(C)C)C2(C)O1)C(=O)CCc1ccccc1)c1ccccc1` (stereo not drawn) [Example 54.1.3, Hydrocinnamoyl-[N-(2,2-(Diethyl)-Phenethyl)-Gly]-boroLys-C10H16 HCl], the Ki at human factor Xa is under 50000 nM; on human factor VIIa, under 500 nM; on human thrombin, under 500 nM.

Turning to `CC1(C)C2CC3OB(C(CCCCN)NC(=O)CN(C(=O)CCC(=O)O)C(=O)CCc4ccccc4)OC3(C)C1C2` (stereo not drawn) [Example 54.2.3, Hydrocinnamoyl-[N-(Succinyl)-Gly]-boroLys-C10H16], the figures for the Ki on human factor Xa, at human factor VIIa and at human thrombin were under 50000 nM, under 50000 nM and under 500 nM, respectively.

For `CC(C)(CN(CC(=O)NC(CCCCN)B1OC2CC3CC(C3(C)C)C2(C)O1)C(=O)CCc1ccccc1)c1ccccc1` (stereo not drawn) [Example 54.3.3, Hydrocinnamoyl-[N-(2,2-(Dimethyl)-Phenethyl)-Gly]-boroLys-C10H16 HCl], the inhibition constant (Ki) at human factor Xa is under 50000 nM; at human factor VIIa, under 500 nM.

For `Cc1cc(C)cc(CCN(CC(=O)NC(CCCCN)B2OC3CC4CC(C4(C)C)C3(C)O2)C(=O)CCc2ccccc2)c1` (stereo not drawn) [Example 54.4.1, Hydrocinnamoyl-{N-[2-(3,5-dimethylphenyl)-ethyl]-Gly}-boroLys-C10H16 HCl], the inhibitory constant (Ki) on human factor Xa and at human factor VIIa was under 50000 nM throughout.

With `CC(C)(CN(CC(=O)NC(CCCN)B1OC2CC3CC(C3(C)C)C2(C)O1)C(=O)CCc1ccccc1)c1ccccc1` (stereo not drawn) [Example 60.1.1, Hydrocinnamoyl-[N-(2,2-(Dimethyl)-Phenethyl)-Gly]-boroOrn-C10H16 HCl], the Ki on human factor Xa was under 50000 nM; at human thrombin, under 500 nM.

As for `CC1(C)C2CC3OB(C(CCCN)NC(=O)CN(C(=O)CCc4ccccc4)C4CC4)OC3(C)C1C2` (stereo not drawn) [Example 60.4.2, Hydrocinnamoyl-[N-(Cyclopropyl)-Gly]-boroOrn-C10H16 HCl], at human thrombin, the Ki is under 500 nM.

With `CC(C)(CC(=O)O)CC(=O)N(CCc1ccccc1)CC(=O)NC(CCCCN)B(O)O` (stereo not drawn) [Example 66.1.2, Glutaryl(3,3-Dimethyl)-[N-(Phenethyl)-Gly]-boroLys--OH], the Ki was under 50000 nM on human factor VIIa and under 500 nM at human thrombin.

In the case of `COC(=O)CC(C)(C)CC(=O)N(CCc1ccccc1)CC(=O)NC(CCCCN)B(O)O` (stereo not drawn) [Example 66.1.3, Methyl Glutaryl(3,3-Dimethyl)-[N-(Phenethyl)-Gly]-boroLys--OH HCl], the values for the inhibitory constant (Ki) on human factor VIIa and at human thrombin were under 50000 nM and under 500 nM, respectively.

On to `CC(c1ccccc1)N(CC(=O)NC(CCCCN)B1OC2CC3CC(C3(C)C)C2(C)O1)C(=O)CNS(C)(=O)=O` (stereo not drawn) [Example 67.3.2, Methanesylfonyl-Gly-[N-(N-(Methyl)-Benzyl)-Gly]-boroLys-C10H16 HCl], for which the Ki on human thrombin was under 500 nM.

On to `CN(CC(=O)N(CCc1ccccc1)CC(=O)NC(CCCCN)B(O)O)S(C)(=O)=O` (stereo not drawn) [Example 68.4.2], for which the Ki on human thrombin is under 500 nM.

As to `CC(C)(C)OC(=O)NC(CCC(=O)O)C(=O)N(CCc1ccccc1)CC(=O)NC(CCCCN)B1OC2CC3CC(C3(C)C)C2(C)O1` (stereo not drawn) [Example 69.2.1, Boc-Glu-[N-(Phenethyl)-Gly]-boroLys-C10H16], the Ki on human factor VIIa and on human thrombin was under 500 nM each time.

Take `CC(C)(C)OC(=O)NC(CC(=O)O)C(=O)N(CCc1ccccc1)CC(=O)NC(CCCCN)B1OC2CC3CC(C3(C)C)C2(C)O1` (stereo not drawn) [Example 69.2.2, Boc-Asp-[N-(Phenethyl)-Gly]-boroLys-C10H16]: the Ki on human factor VIIa and at human thrombin was under 500 nM throughout.

In the case of `COC(=O)CCC(NC(=O)OC(C)(C)C)C(=O)N(CCc1ccccc1)CC(=O)NC(CCCCN)B1OC2CC3CC(C3(C)C)C2(C)O1` (stereo not drawn) [Example 69.2.3, Boc-Glu(OCH3)-[N-(Phenethyl)-Gly]-boroLys--C10H16 HCl], the inhibitory constant (Ki) was under 50000 nM on human factor VIIa and under 500 nM on human thrombin.

For the compound `CN(CC(=O)N(CCc1ccccc1)CC(=O)NC(CCCCN)B1OC2CC3CC(C3(C)C)C2(C)O1)S(C)(=O)=O` (stereo not drawn) [Example 69.4.2, Methanesulfonyl-Sar-[N-(Phenethyl)-Gly]-boroLys-C10H16 HCl], the Ki at human thrombin was under 500 nM.

As for `CN(CC(=O)NC(CCCNC(=N)N)B(O)O)C(=O)c1ccccc1Sc1ccccc1C#N` (stereo not drawn) [Example 75.3.1, (2-(2-Cyano)-Thiophenyl)-Benzoyl-Sar-boroArg--OH HCl], the inhibitory constant (Ki) on human factor VIIa was under 500 nM.

In the case of “Hydrocinnamoyl-Sar-Lys--C(=O)--CH3 HCl [Example 61.2.3]”, the “Ki values for inhibition of Serine Proteases: Factor Xa” value on human factor Xa (pH 7.5) was “Inactive”. Moreover, the “Ki values for inhibition … Factor VIIa” value on human factor VIIa is listed as “Inactive”.

As to “Hydrocinnamoyl-[N-(Cyclopropyl)-Gly]-boroLys(CH=NH)--OH HCl [Example 76.1.1]”, the Ki on human thrombin is under 500 nM.

On to “Hydrocinnamoyl-[N-(Cyclopropyl)-Gly]-boroLys(CH=NH)-C10H16 HCl [Example 77.1.1]”, for which the inhibition constant Ki on human thrombin was under 500 nM.

Take “Hydrocinnamoyl-[N-(Cyclopropyl)-Gly]-boroOrn(CH=NH)-C10H16 HCl [Example 58.4.2]”: at human thrombin, the Ki was under 50000 nM.

On to “Hydrocinnamoyl-[N-(N(CH3)2)-Gly]-boroLys--C10H16 HCl [Example 50.1.3]”, for which, on human thrombin, the inhibition constant (Ki) is under 500 nM.
